Measured values taken from patent US10912786B2, “Silyl monomers capable of multimerizing in an aqueous solution, and methods of using same” (Cornell University, priority 2011, dated 2021).

Target: T1, recombinant human tryptase, beta, from lung (Homo sapiens, UniProt P20231)
T1 construct: purchased Promega or Enzo Life Sciences G5631 or BML-SE418
Test: Evaluation of inhibition of tryptase activity (Boc-Gln-Ala-Arg-AMC fluorescence)
Assay type: biochemical
Conditions: exemplary silyl monomers; 1 nM tryptase; read-out: IC50 range
Protocol: Stock solutions of recombinant human tryptase, beta, from lung (Promega: catalog number G5631, or Enzo Life Sciences: catalog number BML-SE418) were made at 30 μM, in solution with 50 μM heparin sulfate and 500 mM NaCl. Multimer tryptase inhibitor stock solutions were made at 50 mM in DMSO. Drug plates were made at 5× the final concentration in assay buffer (50 mM HEPES, 150 mM NaCl, 100 μM EDTA, pH 7.4, 0.02% Tween-20). A final concentration of 1 nM tryptase was used. When required, drugs were diluted in assay buffer immediately before use in 10-fold serial dilutions. […] The release of fluorescent AMC was immediately measured every 60 seconds over 30-60 minutes at an excitation wavelength of 367 nm, monitoring emission at 468 nm on a Spectramax M5 (Molecular Devices) microplate reader. The Softmax Pro (Molecular Devices) and Graphpad prism software were used to determine Vmax, and concentration-response curve IC50s, respectively. As indicated below, IC50 ranges are provided for various exemplary monomers.

T1 sequence (P20231 31-275): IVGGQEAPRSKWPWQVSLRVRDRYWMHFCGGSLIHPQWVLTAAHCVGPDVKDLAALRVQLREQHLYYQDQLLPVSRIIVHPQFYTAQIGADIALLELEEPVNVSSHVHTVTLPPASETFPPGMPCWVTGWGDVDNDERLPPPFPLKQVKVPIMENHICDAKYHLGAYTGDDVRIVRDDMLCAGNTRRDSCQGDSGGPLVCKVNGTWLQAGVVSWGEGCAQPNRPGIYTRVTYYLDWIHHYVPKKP

| Structure (SMILES) | IC50 [nM] |
| --- | --- |
| C[Si](C)(O)c1cccc(-c2cccc(C(=O)N3CCC(c4cccc(CN)c4)CC3)c2)c1 [T35 Silyl] | 10000 to 65000 |
| C[Si](C)(O)c1ccc2cccc(C(=O)N3CCC(c4cccc(CN)c4)CC3)c2c1 [Target T11SILYL] | 0.1 to 1000 |
| C[Si](C)(O)c1cccc2[nH]c(C(=O)N3CCC(c4cccc(CN)c4)CC3)cc12 [Target T32Silyl] | 10000 to 65000 |
| C[Si](C)(O[Si](C)(C)c1cccc2sc(C(=O)N3CCC(c4cccc(CN)c4)CC3)cc12)c1cccc2sc(C(=O)N3CCC(c4cccc(CN)c4)CC3)cc12 [Target T46] | 0.1 to 1000 |
| C[Si](C)(O[Si](C)(C)c1cccc(CC(=O)N2CCC(c3cccc(CN)c3)CC2)c1)c1cccc(CC(=O)N2CCC(c3cccc(CN)c3)CC2)c1 [Target T47] | 0.1 to 1000 |
| C[Si](C)(/C=C/c1cccc(CC(=O)N2CCC(c3cccc(CN)c3)CC2)c1)O[Si](C)(C)/C=C/c1cccc(CC(=O)N2CCC(c3cccc(CN)c3)CC2)c1 [Target T47vinyl] | 1000 to 10000 |
| C[Si](C)(O[Si](C)(C)c1ccc(CC(=O)N2CCC(c3cccc(CN)c3)CC2)cc1)c1ccc(CC(=O)N2CCC(c3cccc(CN)c3)CC2)cc1 [Target T48] | 1000 to 10000 |
| C[Si](C)(O)c1cccc2ccc(C(=O)N3CCC4(CC3)COc3ccc(CN)cc34)cc12 [Target T52SPIRO] | 0.1 to 1000 |
| C[Si](C)(O)c1cccc2cc(C(=O)N3CCC(c4cc(CN)ccc4F)CC3)ccc12 [Target T120F] | 0.1 to 1000 |
| C[Si](C)(O)c1cccc(C(=O)N2CCC3(CC2)COc2ccc(CN)cc23)c1 [Target T129SPIRO] | 0.1 to 1000 |
| CSc1cc(C(=O)N2CCC(c3cccc(CN)c3)CC2)cc([Si](C)(C)O)c1 [Target T129Smethyl] | 0.1 to 1000 |
| Cn1cc(C(=O)N2CCC(c3cccc(CN)c3)CC2)c2ccc([Si](C)(C)O)cc21 [Target T152NMethyl] | 10000 to 65000 |

Results, then the compound that gave them:

| IC50 [nM] | Structure (SMILES) |
| --- | --- |
| 0.1 to 1000 | C[Si](C)(O[Si](C)(C)c1cc2c(C(=O)N3CCC(c4cccc(CN)c4)CC3)cccc2s1)c1cc2c(C(=O)N3CCC(c4cccc(CN)c4)CC3)cccc2s1 [Target T49] |
| 0.1 to 1000 | C[Si](C)(O)c1cccc2ccc(C(=O)N3CCC(c4cccc(CN)c4)CC3)cc12 [Target T52] |
| 1000 to 10000 | C[Si](C)(O)Cc1cccc(C(=O)N2CCC(c3cccc(CN)c3)CC2)c1 [Target T122] |
| 0.1 to 1000 | C[Si](C)(O)c1cccc(C(=O)N2CCC(c3cccc(CN)c3)CC2)c1 [Target T129] |
| 0.1 to 1000 | C[Si](C)(O)c1ccc(C(=O)N2CCC(c3cccc(CN)c3)CC2)cc1 [Target T130] |
| 0.1 to 1000 | C[Si](C)(O)COc1ccc(C(=O)N2CCC(c3cccc(CN)c3)CC2)cc1 [Target T137, (4-(3-(aminomethyl)phenyl)piperidin-1-yl)(4-((hydroxydimethylsilyl)methoxy)-phenyl)methanone] |
| 0.1 to 1000 | C[Si](C)(O)COc1cccc(C(=O)N2CCC(c3cccc(CN)c3)CC2)c1 [Target T138, (4-(3-(aminomethyl)phenyl)-piperidin-1-yl)(3-((hydroxydimethylsilyl)-methoxy)phenyl)methanone] |
| 0.1 to 1000 | C[Si](C)(O)c1coc2ccc(C(=O)N3CCC(c4cccc(CN)c4)CC3)cc12 [Target T148] |
| 1000 to 10000 | C[Si](C)(O)c1csc2ccc(C(=O)N3CCC(c4cccc(CN)c4)CC3)cc12 [Target T149] |
| 10000 to 65000 | C[Si](C)(O)c1ccc2c(C(=O)N3CCC(c4cccc(CN)c4)CC3)c[nH]c2c1 [Target T152] |

Tested on: not listed separately
Test: Hydrolysis of disiloxane to silanol followed by NMR
Assay type: physicochemical
Conditions: expected from the effect of alkyl group size on silyl ether hydrolysis
Source text: Without wishing to be bound by any theory, the estimated half-life for hydrolysis of the disiloxane depicted here:
[drawing 18] is 15 days based at pH5 in 90% DMSO/10% water at room temperature based upon NMR experiments. […] Thus in certain aqueous situations, the hydrolysis of the dimeric disiloxane to monomeric silanol may be essentially irreversible on the timescale relevant for the biological functions they are modulating.

| Structure (SMILES) | half-life of hydrolysis relative to the depicted disiloxane |
| --- | --- |
| CC[Si](CC)(O[Si](CC)(CC)c1ccccc1)c1ccccc1 [diphenyltetraethyldisiloxane] | more than ten fold longer |
